Data published in the NIST ThermoML archive (doi:10.1021/je700260f).

Settings: 323.15 K, Liquid, Vibrating tube method

FC(C(F)(F)F)C(F)(F)F [1,1,1,2,3,3,3-heptafluoropropane]
Settings | mass density [kg/m3]
9744 kPa | 1360.2
9763 kPa | 1360.3
9782 kPa | 1360.5
9800 kPa | 1360.6
9817 kPa | 1360.8
9836 kPa | 1360.8
9857 kPa | 1361.2
9876 kPa | 1361.3
9894 kPa | 1361.4
10348 kPa | 1364.7
10377 kPa | 1364.9
10394 kPa | 1364.9
10416 kPa | 1365.1
10433 kPa | 1365.2
10451 kPa | 1365.3
10468 kPa | 1365.4
10492 kPa | 1365.7
10512 kPa | 1365.7
10532 kPa | 1365.9
10553 kPa | 1366
10577 kPa | 1366.2
10595 kPa | 1366.3
10749 kPa | 1367.4
10766 kPa | 1367.5
10786 kPa | 1367.7
10804 kPa | 1367.8
10828 kPa | 1367.9
10845 kPa | 1368.1
10864 kPa | 1368.3
10894 kPa | 1368.4
11387 kPa | 1371.8
11407 kPa | 1371.9
11425 kPa | 1372
11446 kPa | 1372.2
11463 kPa | 1372.3
11483 kPa | 1372.5
11501 kPa | 1372.7
11519 kPa | 1372.7
11540 kPa | 1372.9
12697 kPa | 1380.5
12717 kPa | 1380.6
12774 kPa | 1380.8
12791 kPa | 1381
12809 kPa | 1381.2
12835 kPa | 1381.4
12849 kPa | 1381.5
12876 kPa | 1381.6
12893 kPa | 1381.6
12913 kPa | 1381.8
12933 kPa | 1382
12950 kPa | 1382.2
12971 kPa | 1382.2
12984 kPa | 1382.4
13009 kPa | 1382.4
13183 kPa | 1383.5
13201 kPa | 1383.6
13222 kPa | 1383.8
13245 kPa | 1383.9
13732 kPa | 1386.8
13757 kPa | 1387.1
13777 kPa | 1387.2
13803 kPa | 1387.2
13826 kPa | 1387.4
13851 kPa | 1387.5
13891 kPa | 1387.8
13911 kPa | 1387.9
13940 kPa | 1388.1
13964 kPa | 1388.4
13981 kPa | 1388.6
14001 kPa | 1388.5
14024 kPa | 1388.6
14045 kPa | 1388.8
14066 kPa | 1388.9
14089 kPa | 1389.2
14106 kPa | 1389.2
14126 kPa | 1389.3
14223 kPa | 1390
14245 kPa | 1390
14268 kPa | 1390.2
14290 kPa | 1390.1
14307 kPa | 1390.4
14331 kPa | 1390.5
14346 kPa | 1390.7
14525 kPa | 1391.7
14547 kPa | 1392
14564 kPa | 1392
14584 kPa | 1392
14606 kPa | 1392.1
14624 kPa | 1392.3
14649 kPa | 1392.4
14665 kPa | 1392.5
14689 kPa | 1392.6
14710 kPa | 1392.9
15240 kPa | 1396
15711 kPa | 1398.5
15733 kPa | 1398.8
15763 kPa | 1398.9
15783 kPa | 1399.1
15811 kPa | 1399.3
15834 kPa | 1399.3
15857 kPa | 1399.5
15884 kPa | 1399.6
